Laboratory results reported in patent publication US9714266B2, “Estra-1,3,5(10),16-tetraene-3-carboxamides for inhibition of 17β-hydroxysteroid dehydrogenase (AKR1C3)” (priority 2013, dated 2017).
Several values for one entry are separate records, joined by “and”; a condition that tells them apart may be missing. Identical values can stand only once.

Key:
AKR1C3 [1] = target: T1, AKR1C3 (Homo sapiens (Human), UniProt P42330); assay: AKR1C3 inhibition in a cell-based system (transfected HEK293 cells, coumberol fluorescence); conditions: HEK293 cells transfected with AKR1C3 expression plasmid; read-out: Cellular AKR1C3 inhibition IC50
T1 sequence (P42330 whole entry): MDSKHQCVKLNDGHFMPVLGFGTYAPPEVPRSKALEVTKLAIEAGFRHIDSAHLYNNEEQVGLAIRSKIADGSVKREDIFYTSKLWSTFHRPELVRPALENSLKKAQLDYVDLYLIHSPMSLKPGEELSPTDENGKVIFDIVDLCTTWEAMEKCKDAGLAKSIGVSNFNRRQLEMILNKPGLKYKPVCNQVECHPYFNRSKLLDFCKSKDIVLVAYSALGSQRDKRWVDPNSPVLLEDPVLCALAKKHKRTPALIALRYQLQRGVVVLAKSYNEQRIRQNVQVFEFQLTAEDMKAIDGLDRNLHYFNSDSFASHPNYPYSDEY
Procedure: The inhibition of AKR1C3 by the substances described in this invention was measured in a cell-based assay using […] as the substrate for the AKR1C3 (Halim, M., Yee, D. J., and Sames, D., J. AM. CHEM. SOC. 130, 14123-14128 (2008) and Yee, D. J., Balsanek, V., Bauman, D. R., Penning, T. M., and Sames, D., Proc. Natl. Acad. Sci. USA 103, 13304-13309 (2006)) (cf. Example 48).
The cell system used was HEK293 cells (ATCC, USA) (cell culture medium: DMEM, 1.5 g of glucose, 10% FCS, PSG). The cells were transfected with an AKR1C3 expression plasmid (pCMV6-AC-AKR1C3, GenBank Accession No. NM_003739.4) overnight (X-tremeGENE HP, Roche). The next morning, the cells were sown into black 96-well culture plates with a cell density of 40 000 cells/well (Greiner Bio-One, Frickenhausen, Germany). 7 h later, the cells were incubated with the test substances (dissolved in 100× concentration in DMSO, final concentration between 10^−11M and 10^−5M) and […] (dissolved in cell culture medium, final concentration 5×10^−6M) overnight. The following morning, the fluorescence of coumberol was measured at 535 nm (excitation at 355 nm) with a suitable measuring instrument (Mithras, from Berthold). […] The data were normalized (transfected cells without inhibitor, only DMSO=0% inhibition; transfected cells, 10 μM EM-1404 inhibitor [F. Labrie et al. U.S. Pat. No. 6,541,463, 2003]=100% inhibition) and IC50 values were calculated by a 4-parameter fit.

AKR1C3 [2] = target: T1, AKR1C3; assay: AKR1C3 enzyme assay (coumberone reduction, fluorescence); format: biochemical; conditions: recombinant human AKR1C3, coumberone 0.3 μM, NADPH 10 μM; read-out: AKR1C3 enzyme inhibition IC50
Procedure: The AKR1C3-inhibitory action of the substances of this invention was measured in the AKR1C3 assay described in the paragraphs which follow. Essentially, the enzyme activity is measured by quantifying the coumberol formed from coumberone ([…]., and […]. AM. CHEM. SOC. 130, 14123-14128 (2008) […]., Bauman, D. R., Penning, T. M., and […]., Proc. Natl. Acad. Sci. USA 103, 13304-13309 (2006)). In this assay, the increase in the highly fluorescent coumberol can be determined by NADPH (nicotinamide adenine dinucleotide phosphate)-dependent reduction of the nonfluorescent coumberone by AKR1C3. […] NM_003739). This was expressed as the GST (glutathione S-transferase) fusion protein in E. coli and purified by means of glutathione-Sepharose affinity chromatography. The GST was removed by thrombin digestion with subsequent size exclusion chromatography (Dufort, I., Rheault, P., Huang, X F., Soucy, P., and Luu-The, V., Endocrinology 140, 568-574 (1999)). […] The concentration of the AKR1C3 was matched to the respective activity of the enzyme preparation and set such that the assay worked within the linear range. Typical concentrations were in the region of 1 nM. The reaction was stopped by adding 5 μl of a stop solution consisting of the inhibitor EM-1404 [F. Labrie et al. U.S. Pat. […] Subsequently, the fluorescence of coumberol was measured at 520 nm (excitation at 380 nm) with a suitable measuring instrument (Pherastar from BMG Labtechnologies).

Human CYP17A1 = Human CYP17A1 (Homo sapiens (Human), UniProt P05093); assay: Inhibition of Cyp17A1 (recombinant enzyme, 3H-progesterone conversion, HPLC); format: biochemical; conditions: for IC50: human CYP17, mean of 3 or 4 independent IC50 values, read-out: IC50 ± SD CYP17
Sequence of Human CYP17A1 (P05093 whole entry): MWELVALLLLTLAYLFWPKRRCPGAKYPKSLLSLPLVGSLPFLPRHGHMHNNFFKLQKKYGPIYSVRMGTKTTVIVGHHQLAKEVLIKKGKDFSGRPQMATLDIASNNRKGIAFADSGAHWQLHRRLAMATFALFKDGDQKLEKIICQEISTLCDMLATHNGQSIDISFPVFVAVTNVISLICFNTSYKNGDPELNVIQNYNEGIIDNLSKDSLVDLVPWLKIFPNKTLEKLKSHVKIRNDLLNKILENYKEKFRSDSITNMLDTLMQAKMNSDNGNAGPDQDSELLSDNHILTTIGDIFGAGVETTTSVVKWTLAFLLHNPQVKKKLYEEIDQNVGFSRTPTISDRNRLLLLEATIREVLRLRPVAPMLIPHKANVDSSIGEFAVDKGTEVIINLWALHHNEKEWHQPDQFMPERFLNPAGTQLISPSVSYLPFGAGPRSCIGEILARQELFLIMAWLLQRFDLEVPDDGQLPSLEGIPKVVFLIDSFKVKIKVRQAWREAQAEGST
Procedure: The inhibition of CYP17A1 by the test compounds was evaluated by means of recombinant enzyme. Human CYP17A1 was expressed in E. coli (Ehmer, P. B. et al.; J. Steroid Biochem. Mol. […] After evaporating the organic phase, the steroids were taken up in acetonitrile. 16α-Hydroxyprogesterone, 17α-hydroxyprogesterone and progesterone were separated with acetonitrile/water (45:55) as mobile phase on a C18 reverse phase chromatography column (Nucleodur C18 Gravity, 3 μm, Macherey-Nagel, Düren) in an HPLC System (Agilent 1100 Series, Agilent Technologies, Waldbronn). Detection and quantification of the steroids were conducted by means of a Radioflow detector (Berthold Technologies, Bad Wildbad). The inhibition was calculated by the following formula: [formula] Each value was calculated from at least three independent experiments.

recombinant human AKR1C2 = recombinant human AKR1C2 (Homo sapiens (Human), UniProt P52895); assay: AKR1C2 inhibition (NADPH consumption, phenanthrenequinone); format: biochemical
Sequence of recombinant human AKR1C2 (P52895 whole entry, the tested form may be a part): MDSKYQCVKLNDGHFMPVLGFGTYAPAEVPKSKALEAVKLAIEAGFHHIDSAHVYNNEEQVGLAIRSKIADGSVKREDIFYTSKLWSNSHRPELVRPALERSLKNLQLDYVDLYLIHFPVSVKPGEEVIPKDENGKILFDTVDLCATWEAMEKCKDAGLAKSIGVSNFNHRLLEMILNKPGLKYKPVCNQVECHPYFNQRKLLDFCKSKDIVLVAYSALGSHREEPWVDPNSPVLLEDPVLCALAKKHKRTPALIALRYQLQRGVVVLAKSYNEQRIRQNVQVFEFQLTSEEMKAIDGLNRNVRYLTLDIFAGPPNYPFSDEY
Procedure: (§1) The AKR1C1/AKR1C2/AKR1C4-inhibitory action of the inventive substances, for determination of the selectivity of this invention, was measured in the assay described in the paragraphs which follow. Essentially, the enzyme activity is measured by the quantification of NADPH (nicotinamide adenine dinucleotide phosphate) consumption in the conversion of phenanthrenequinone (PQ) by the AKR1C enzymes. […] NM_001353.5, NM_001354, NM_001818). This was expressed as the GST (glutathione S-transferase) fusion protein in E. coli and purified by means of glutathione-Sepharose affinity chromatography. The GST was removed by thrombin digestion with subsequent size exclusion chromatography (Dufort, I., Rheault, P., Huang, X F., Soucy, P., and Luu-The, V., Endocrinology 140, 568-574 (1999)). […] The mixture was incubated at 37° C. for 3 h, and the fluorescence was determined at the end of the reaction. […] Typically, the test substances were tested on the same microtitre plate in […] in the range from 10 μM to 1 pM (10 μM, 1 μM, 100 nM, 10 nM, 1 nM, 100 pM, 10 pM, 1 pM). As described, the pharmacological substances claimed were tested for their inhibitory effect on AKR1C enzymes 1, 2 and 4 (see Table 4).

recombinant human AKR1C4 = recombinant human AKR1C4 (Homo sapiens (Human), UniProt P17516); assay: AKR1C4 inhibition (NADPH consumption, phenanthrenequinone); format: biochemical
Sequence of recombinant human AKR1C4 (P17516 whole entry): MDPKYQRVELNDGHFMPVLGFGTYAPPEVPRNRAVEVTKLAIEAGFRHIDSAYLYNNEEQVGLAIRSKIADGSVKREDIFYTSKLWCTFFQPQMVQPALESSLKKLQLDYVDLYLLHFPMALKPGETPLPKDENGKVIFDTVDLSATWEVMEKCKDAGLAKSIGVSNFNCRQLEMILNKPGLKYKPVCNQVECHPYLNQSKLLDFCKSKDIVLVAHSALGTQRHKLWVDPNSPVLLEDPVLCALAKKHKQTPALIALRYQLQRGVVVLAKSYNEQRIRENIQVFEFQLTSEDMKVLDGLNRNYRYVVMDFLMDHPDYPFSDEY
Procedure: as §1

recombinant human AKR1C1 = recombinant human AKR1C1 (Homo sapiens (Human), UniProt Q04828); assay: AKR1C1 inhibition (NADPH consumption, phenanthrenequinone); format: biochemical
Sequence of recombinant human AKR1C1 (Q04828 whole entry): as the sequence (P52895 whole entry, the tested form may be a part) above, with V38T, H47R, V54L, S87C, M151V, H170R, L172Q counted along it
Procedure: as §1

SMILES | IC50 (AKR1C3 [1]) | IC50 (AKR1C3 [2]) | IC50 (Human CYP17A1) [nM] | Inhibition of AKR1C2 (in words) (recombinant human AKR1C2) | Inhibition of AKR1C4 (in words) (recombinant human AKR1C4) | Inhibition of AKR1C1 (in words) (recombinant human AKR1C1) | also measured
C[C@]12CC[C@@H]3c4ccc(C(=O)NCC(O)C(F)(F)F)cc4CC[C@H]3[C@@H]1CC=C2c1cncc(F)c1 (mixture of isomers) [Example 20, 17-(5-fluoropyridin-3-yl)-N—[(RS)-3,3,3-trifluoro-2-hydroxypropyl]oestra-1,3,5(10),16-tetraene-3-carboxamide] | 32 nM and 42 nM | 12 nM and 8 nM and 20 nM and 16 nM | > 20000 | – | – | – | –
C[C@]12CC[C@H](O)CC1=CC[C@@H]1[C@@H]2CC[C@]2(C)C(c3cccnc3)=CC[C@@H]12 [Abiraterone, reference compound] | – | – | – | – | – | – | Inhibition of Cyp17A1 (in words) (Human CYP17A1; up to a substance concentration of 20 μM where stated): active
C[C@]12CC[C@@H]3c4ccc(C(N)=O)cc4CC[C@H]3[C@@H]1CC=C2c1cccnc1 [Example 1, 17-(pyridin-3-yl)oestra-1,3,5(10),16-tetraene-3-carboxamide] | 27 nM and 28 nM and 66 nM and 13 nM | 5 nM and 6 nM | – | no inhibition | no inhibition | no inhibition | AKR1C2 enzyme inhibition IC50 (recombinant human AKR1C2; tested up to 10 μM): no effect; AKR1C4 enzyme inhibition IC50 (recombinant human AKR1C4; tested up to 10 μM): no effect; AKR1C1 enzyme inhibition IC50 (recombinant human AKR1C1; tested up to 10 μM): no effect
C[C@]12CC[C@@H]3c4ccc(C(N)=O)cc4CC[C@H]3[C@@H]1CC=C2c1cncc(F)c1 [Example 4, 17-(5-fluoropyridin-3-yl)oestra-1,3,5(10),16-tetraene-3-carboxamide] | – | 4 nM | > 20000 | – | – | – | –
O=C1OC(c2ccc(O)cc2)(c2ccc(O)cc2)c2ccccc21 [phenolphthalein] | – | – | – | shows inhibition | shows inhibition | shows inhibition | IC50 (recombinant human AKR1C2; tested up to 10 μM, read-out: AKR1C2 enzyme inhibition IC50): 554 nM and 438 nM; IC50 (recombinant human AKR1C4; tested up to 10 μM, read-out: AKR1C4 enzyme inhibition IC50): 21 nM and 17 nM; IC50 (recombinant human AKR1C1; tested up to 10 μM, read-out: AKR1C1 enzyme inhibition IC50): 46 nM and 60 nM
